In ChEMBL document CHEMBL1201862, “PubChem BioAssay data set” (2004):
The source made the active and inactive calls.

What was measured:
Trypsin = Trypsin (Sus scrofa, UniProt P00761); test: porcine trypsin inhibitors, dose response, selectivity assay for Rce1 protease inhibitor project, biochemical, quenched peptide fluorescence, cherry-pick (AID 488789)
CAAX prenyl protease 2 [1] = target: CAAX prenyl protease 2 (Homo sapiens, UniProt Q9Y256); test: human Rce1 protease inhibitors, dose response, biochemical, yeast membranes, quenched-peptide fluorescence, cherry-pick (AID 588849)
CAAX prenyl protease 2 [2] = target: CAAX prenyl protease 2 (Saccharomyces cerevisiae S288c, UniProt Q03530); format: biochemical
[3] = target: T1, Tyrosine-protein phosphatase non-receptor type 7 (Homo sapiens, UniProt P35236); test: SAR analysis of chemical inhibitors of HePTP using a Fluorescent assay - Set 2. [Related pubchem assays (depositor defined):AID1059, AID1077, AID1661, AID2085, AID521]; format: functional
T1 sequence (P35236 whole entry): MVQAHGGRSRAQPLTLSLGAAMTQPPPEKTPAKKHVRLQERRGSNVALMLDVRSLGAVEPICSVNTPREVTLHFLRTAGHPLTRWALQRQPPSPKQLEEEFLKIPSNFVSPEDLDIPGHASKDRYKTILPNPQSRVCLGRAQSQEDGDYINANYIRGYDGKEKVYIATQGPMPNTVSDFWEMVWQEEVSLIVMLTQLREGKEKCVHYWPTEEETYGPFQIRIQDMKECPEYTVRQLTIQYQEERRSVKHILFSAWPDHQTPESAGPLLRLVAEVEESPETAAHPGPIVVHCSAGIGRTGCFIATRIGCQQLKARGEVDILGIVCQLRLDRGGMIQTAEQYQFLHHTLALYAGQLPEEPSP

[4] = target: Dual specificity protein phosphatase 3 (Homo sapiens, UniProt P51452); test: SAR VHR1 Fluorescent Assay for In Vitro dose response studies Set 2. [Related pubchem assays (depositor defined):AID1654, AID1661, AID1878]; format: functional
Coagulation factor XII [5] = target: T2, Coagulation factor XII (Homo sapiens, UniProt P00748); test: Factor XIIa Dose Response Confirmation from Single Well HTS. [Related pubchem assays (depositor defined):AID701]; format: functional
T2 sequence (P00748 whole entry): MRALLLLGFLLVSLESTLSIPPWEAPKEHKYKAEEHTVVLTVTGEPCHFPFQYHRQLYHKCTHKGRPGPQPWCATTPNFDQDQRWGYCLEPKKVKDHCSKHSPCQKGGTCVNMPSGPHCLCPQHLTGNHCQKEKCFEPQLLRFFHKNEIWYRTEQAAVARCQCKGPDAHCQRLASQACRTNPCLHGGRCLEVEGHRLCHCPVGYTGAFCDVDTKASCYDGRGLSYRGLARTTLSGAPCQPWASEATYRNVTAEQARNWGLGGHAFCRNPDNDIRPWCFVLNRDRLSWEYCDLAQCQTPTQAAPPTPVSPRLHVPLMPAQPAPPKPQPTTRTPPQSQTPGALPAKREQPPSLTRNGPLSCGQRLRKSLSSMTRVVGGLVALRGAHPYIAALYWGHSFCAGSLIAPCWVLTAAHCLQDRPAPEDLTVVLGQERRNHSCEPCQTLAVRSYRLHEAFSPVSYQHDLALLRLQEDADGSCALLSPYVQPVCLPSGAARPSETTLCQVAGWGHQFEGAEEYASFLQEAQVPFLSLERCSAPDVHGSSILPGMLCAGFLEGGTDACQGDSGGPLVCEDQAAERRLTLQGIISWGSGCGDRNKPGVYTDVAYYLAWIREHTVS

Coagulation factor XII [6] = target: T2, Coagulation factor XII; test: FXIIa inhibitor potency, concentration-response, biochemical (AID 716); format: functional
Vero [7] = test: cells; format: functional; settings: Chlorocebus sabaeus
[8] = Luminescence Cell-Based Dose Response HTS to Identify Activators of Luciferase Translation or Activity in H4 […] Cells. [Related pubchem assays: 1829 (Project Summary), 1814 (Primary HTS)]; format: functional
[9] = Luminescence Cell-Based Dose Response HTS to Identify Activators of Luciferase Translation or Activity in H4-C Neuroglioblastoma Cells. [Related pubchem assays: 1829 (Project Summary), 1814 (Primary HTS)]; format: functional
[10] = target: T3, RNA-binding protein pos-1 (Caenorhabditis elegans, UniProt G5EF15); test: inhibitors of POS-1/mex-3 RNA binding, dose response, biochemical, fluorescence polarization (AID 1964);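 also: purified POS-1 fused to maltose binding protein made in E. coli; potency of compounds blocking POS-1 binding to fluorescent RNA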
T3 sequence (G5EF15 whole entry): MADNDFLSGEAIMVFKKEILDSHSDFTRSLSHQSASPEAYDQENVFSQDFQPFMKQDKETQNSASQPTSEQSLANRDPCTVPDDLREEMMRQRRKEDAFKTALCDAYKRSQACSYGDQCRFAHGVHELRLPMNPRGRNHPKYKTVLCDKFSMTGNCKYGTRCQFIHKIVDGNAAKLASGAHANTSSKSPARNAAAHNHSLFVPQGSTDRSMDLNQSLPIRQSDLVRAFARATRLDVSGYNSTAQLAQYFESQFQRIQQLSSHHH

[11] = target: T4, Zinc finger protein mex-5 (Caenorhabditis elegans, UniProt Q9XUB2); test: MEX-5/TCR-2 RNA interaction inhibitors, dose response, biochemical, C. elegans, fluorescence polarization (AID 1960)
T4 sequence (Q9XUB2 whole entry): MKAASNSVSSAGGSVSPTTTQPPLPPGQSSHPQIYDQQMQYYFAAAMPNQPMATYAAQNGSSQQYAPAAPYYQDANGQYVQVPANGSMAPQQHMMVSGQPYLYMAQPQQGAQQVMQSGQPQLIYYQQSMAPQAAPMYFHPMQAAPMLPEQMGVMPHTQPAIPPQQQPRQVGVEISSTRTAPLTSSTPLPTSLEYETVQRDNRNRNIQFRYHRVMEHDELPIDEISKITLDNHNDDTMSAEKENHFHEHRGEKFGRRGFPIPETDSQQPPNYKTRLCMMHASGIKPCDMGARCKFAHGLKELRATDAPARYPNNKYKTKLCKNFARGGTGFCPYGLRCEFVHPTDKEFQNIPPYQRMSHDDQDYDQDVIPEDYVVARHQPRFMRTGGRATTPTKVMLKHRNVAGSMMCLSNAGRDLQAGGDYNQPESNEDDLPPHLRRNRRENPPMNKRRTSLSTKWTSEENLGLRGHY

H4 = test: Luminescence Cell-Based Dose Response HTS to Identify Activators of 5'UTR Stem-Loop Driven Prion Protein mRNA Translation in H4 Neuroglioblastoma Cells. [Related pubchem assays: 1829 (Project Summary), 1814 (Primary HTS)]; format: functional; settings: Homo sapiens
[12] = Luminescence Cell-Based Dose Retest to Confirm Activators of 5'UTR Stem-Loop Driven Alpha-Synuclein mRNA Translation in H4 Neuroglioblastoma Cells. [Related pubchem assays (depositor defined):AID1813, AID1829]; format: functional
[13] = Luminescence Cell-Based Dose Response HTS to Identify Activators of 5'UTR Stem-Loop Driven Prion Protein mRNA Translation in H4-C Neuroglioblastoma Cells. [Related pubchem assays: 1829 (Project Summary), 1814 (Primary HTS)]; format: functional
[14] = Luminescence Cell-Based Dose Confirmation HTS to Identify Activators of 5'UTR Stem-Loop Driven Alpha-Synuclein mRNA Translation in H4 Neuroglioblastoma Cells. [Related pubchem assays: 1829 (Project Summary), 1814 (Primary HTS)]; format: functional
Vero [15] = test: cytotoxicity of synthesized analogs in Vero cells, SAR follow-up, cytotoxicity control for West Nile virus antiviral project, cell-based, set II (AID 2402); format: functional; settings: Chlorocebus sabaeus
Vero [16] = test: Vero E6 cell cytotoxicity, SAR follow-up, cytotoxicity control for West Nile virus antiviral project, synthesized analogs (AID 2244); format: functional; settings: Chlorocebus sabaeus
Vero [17] = test: cytotoxicity of synthesized analogs in Vero 76, SAR follow-up, cytotoxicity control for West Nile virus antiviral project, Vero 76 cells (AID 2414); format: functional; settings: Chlorocebus sabaeus
Vero [18] = test: West Nile virus antiviral activity, cell-based, CPE readout (AID 1621); format: functional; settings: Chlorocebus sabaeus
Vero [19] = test: West Nile virus CPE inhibition, SAR follow-up, cell-based, synthesized analogs (AID 2238); format: functional; settings: Chlorocebus sabaeus
[20] = A Cell Based Assay for the Identification of Probe candidate Compounds with Anti- Venezuelan Equine Encephalitis virus. [Related pubchem assays: 2409, 2419, 1621, 2238, 2405, 2024, 2065, 2402, 2414, 1635, 1650, 2244 ]; format: functional
[21] = target: T5, Endoribonuclease toxin MazF (Escherichia coli K-12, UniProt P0AE70); test: MazF toxin RNase activators, dose response, biochemical, fluorescence, single-stranded RNA substrate, uHTS hits (AID 588481); format: functional
T5 sequence (P0AE70 whole entry): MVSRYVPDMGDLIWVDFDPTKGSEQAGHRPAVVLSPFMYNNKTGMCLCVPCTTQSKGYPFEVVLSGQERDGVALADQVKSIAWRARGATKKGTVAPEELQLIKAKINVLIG

[22] = target: Neurotensin receptor type 1 (Homo sapiens, UniProt P30989); format: functional;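 also: Image-based confirmatory dose-response assay measuring agonist activity at NTR1; NTR1-expressing U2OS osteosarcoma cells imaged for beta-arrestin GFP spot formation; agonist potency where compounds increase beta-arrestin recruitment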
[23] = growth suppression of PTEN-null colon cells, dose response, cell-based, HCT116 PTEN knockout (AID 1047); format: functional;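 also: HCT116 colon tumor cells with PTEN knocked out; cells exposed to compound for 60 hours before readout; potency for loss of cell viability measured by luminescence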
[24] = target: T5, Endoribonuclease toxin MazF; test: fluorescent RNA oligo signal without MazF, dose response, counter-screen for MazEF activator project, biochemical, fluorescence, single-stranded RNase substrate (AID 588502); format: functional
[25] = target: T6, Ubiquitin-conjugating enzyme E2 N (Homo sapiens, UniProt P61088); format: functional;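 also: Dose-response confirmation in a TR-FRET assay detecting UBC13-driven polyubiquitin chain formation, inhibition measured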
T6 sequence (P61088 whole entry): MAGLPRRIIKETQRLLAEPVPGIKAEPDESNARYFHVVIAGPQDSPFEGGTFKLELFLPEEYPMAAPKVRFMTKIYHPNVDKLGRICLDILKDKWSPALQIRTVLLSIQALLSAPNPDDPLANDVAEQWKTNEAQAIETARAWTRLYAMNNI

[26] = target: Arf-GAP with SH3 domain, ANK repeat and PH domain-containing protein 1 (Homo sapiens, UniProt Q9ULH1); format: functional;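 also: biochemical fluorescence polarization dose–response screen measuring inhibition of ASAP1; ASAP1 GAP domain stimulating GTP hydrolysis by truncated human ARF1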
[27] = growth suppression of beta-catenin-knockout colon cells, dose response, cell-based, HCT116, human colon tumor (AID 1045); format: functional;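 also: HCT116 colon tumor cells with beta catenin knocked out; cells exposed to compound for 60 hours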
[28] = target: G-protein coupled receptor 55 (Homo sapiens, UniProt Q9Y2T6); test: GPR55 agonists via beta-arrestin recruitment, primary screen, imaging, U2OS cells, beta-arrestin-GFP redistribution (AID 1961); format: functional
[29] = target: Intestinal-type alkaline phosphatase (Homo sapiens, UniProt P09923); test: Dose Response confirmation of uHTS hits from a small molecule inhibitors of human intestinal alkaline phosphatase via a luminescent assay. [Related pubchem assays (depositor defined):AID2544, AID2574]; format: functional
Hexokinase = Hexokinase (Trypanosoma brucei, UniProt Q38C41); test: Confirmation assay for inhibitors of Trypanosoma brucei hexokinase 1-Analogue-first series. [Related pubchem assays (depositor defined):AID1430, AID1632, AID2516, AID2560, AID2579, AID2600, AID449725, AID492951]; format: functional
[30] = target: Delta-type opioid receptor (Homo sapiens, UniProt P41143); test: SAR Analysis of Antagonists of the DOR Receptor using an Image-Based Assay - Set 3. [Related pubchem assays (depositor defined):AID1777, AID1785]; format: functional;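 also: U2OS cells expressing DOR1 and beta-arrestin GFP stimulated with 100 nM SNC80; imaging of GFP-tagged beta-arrestin moving into spots after receptor activation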
[31] = target: T7, Kappa-type opioid receptor (Homo sapiens, UniProt P41145); test: SAR analysis of small molecule antagonists of the kappa opioid receptor via a luminescent beta-arrestin assay - Set 3. [Related pubchem assays (depositor defined):AID1777, AID1778, AID1785, AID1786, AID1966, AID2133, AID2136, AID2285, AID2495]; format: functional
[32] = target: T7, Kappa-type opioid receptor; test: SAR analysis of Antagonists of the Kappa Opioid Receptor (KOR) using an Image-Based Assay - Set 3. [Related pubchem assays (depositor defined):AID1777, AID1785]; format: functional
Mu-type opioid receptor = Mu-type opioid receptor (Homo sapiens, UniProt P35372); test: SAR Analysis of Antagonists of the MOR Receptor using an Image-Based Assay - Set 3. [Related pubchem assays (depositor defined):AID1777, AID1785, AID1786, AID1966, AID2133, AID2136, AID2284, AID2285, AID2420]; format: functional
Mu-type opioid receptor, sequence (P35372 whole entry): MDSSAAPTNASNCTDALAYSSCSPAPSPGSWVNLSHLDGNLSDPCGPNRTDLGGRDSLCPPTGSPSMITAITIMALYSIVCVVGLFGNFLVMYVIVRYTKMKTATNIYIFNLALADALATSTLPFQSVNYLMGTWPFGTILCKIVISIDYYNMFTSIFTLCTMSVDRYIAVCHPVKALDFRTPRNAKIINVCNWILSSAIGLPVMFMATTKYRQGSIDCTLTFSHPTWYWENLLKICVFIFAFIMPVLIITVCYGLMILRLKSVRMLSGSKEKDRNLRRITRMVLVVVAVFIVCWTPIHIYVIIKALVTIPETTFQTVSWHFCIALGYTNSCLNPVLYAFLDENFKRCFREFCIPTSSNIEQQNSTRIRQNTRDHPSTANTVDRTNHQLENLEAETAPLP

T7 sequence (P41145 whole entry): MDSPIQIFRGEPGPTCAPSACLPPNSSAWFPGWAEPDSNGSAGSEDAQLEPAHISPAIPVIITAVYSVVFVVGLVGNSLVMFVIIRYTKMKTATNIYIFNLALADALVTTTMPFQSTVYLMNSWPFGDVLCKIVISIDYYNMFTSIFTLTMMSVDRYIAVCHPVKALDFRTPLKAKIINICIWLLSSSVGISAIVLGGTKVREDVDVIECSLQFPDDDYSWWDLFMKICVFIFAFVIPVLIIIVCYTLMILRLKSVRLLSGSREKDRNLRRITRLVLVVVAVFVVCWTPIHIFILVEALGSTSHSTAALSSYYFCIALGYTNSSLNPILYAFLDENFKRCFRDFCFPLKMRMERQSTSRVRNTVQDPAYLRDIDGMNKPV
Hexokinase, sequence (Q38C41 whole entry): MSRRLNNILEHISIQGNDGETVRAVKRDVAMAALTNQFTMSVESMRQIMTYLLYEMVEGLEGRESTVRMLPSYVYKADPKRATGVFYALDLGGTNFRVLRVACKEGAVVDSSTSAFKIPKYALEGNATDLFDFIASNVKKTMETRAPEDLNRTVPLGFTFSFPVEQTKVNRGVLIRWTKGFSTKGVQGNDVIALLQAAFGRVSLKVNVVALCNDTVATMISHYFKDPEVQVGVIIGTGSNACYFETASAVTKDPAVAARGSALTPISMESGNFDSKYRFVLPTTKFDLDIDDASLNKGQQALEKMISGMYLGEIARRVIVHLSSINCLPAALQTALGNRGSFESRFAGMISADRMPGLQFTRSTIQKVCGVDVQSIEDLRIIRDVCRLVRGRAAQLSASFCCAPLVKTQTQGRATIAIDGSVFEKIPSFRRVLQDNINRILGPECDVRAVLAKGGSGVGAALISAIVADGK
Dual specificity protein phosphatase 3, sequence (P51452 whole entry): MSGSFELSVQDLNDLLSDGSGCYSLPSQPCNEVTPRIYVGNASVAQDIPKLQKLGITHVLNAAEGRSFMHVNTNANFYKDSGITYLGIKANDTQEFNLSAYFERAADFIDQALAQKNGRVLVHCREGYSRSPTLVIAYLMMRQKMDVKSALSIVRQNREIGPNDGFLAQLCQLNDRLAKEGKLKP
CAAX prenyl protease 2 (Homo sapiens, UniProt Q9Y256), sequence (Q9Y256 whole entry): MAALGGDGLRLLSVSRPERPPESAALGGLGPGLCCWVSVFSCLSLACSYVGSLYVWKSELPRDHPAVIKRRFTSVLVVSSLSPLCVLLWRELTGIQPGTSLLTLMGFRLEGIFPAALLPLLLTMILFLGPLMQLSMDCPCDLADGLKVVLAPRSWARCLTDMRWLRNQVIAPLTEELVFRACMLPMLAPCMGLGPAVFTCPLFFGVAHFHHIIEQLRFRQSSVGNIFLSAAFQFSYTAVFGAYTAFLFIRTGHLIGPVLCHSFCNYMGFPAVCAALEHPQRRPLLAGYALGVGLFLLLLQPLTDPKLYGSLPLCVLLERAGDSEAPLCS
G-protein coupled receptor 55, sequence (Q9Y2T6 whole entry): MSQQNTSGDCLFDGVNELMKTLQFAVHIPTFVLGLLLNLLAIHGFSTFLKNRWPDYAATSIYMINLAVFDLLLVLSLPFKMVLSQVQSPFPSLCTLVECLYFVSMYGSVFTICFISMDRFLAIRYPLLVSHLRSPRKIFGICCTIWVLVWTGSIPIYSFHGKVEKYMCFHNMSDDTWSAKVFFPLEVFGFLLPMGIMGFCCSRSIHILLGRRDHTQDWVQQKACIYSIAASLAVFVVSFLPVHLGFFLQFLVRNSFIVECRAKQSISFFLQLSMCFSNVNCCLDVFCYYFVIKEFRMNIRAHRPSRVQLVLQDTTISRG
Delta-type opioid receptor, sequence (P41143 whole entry): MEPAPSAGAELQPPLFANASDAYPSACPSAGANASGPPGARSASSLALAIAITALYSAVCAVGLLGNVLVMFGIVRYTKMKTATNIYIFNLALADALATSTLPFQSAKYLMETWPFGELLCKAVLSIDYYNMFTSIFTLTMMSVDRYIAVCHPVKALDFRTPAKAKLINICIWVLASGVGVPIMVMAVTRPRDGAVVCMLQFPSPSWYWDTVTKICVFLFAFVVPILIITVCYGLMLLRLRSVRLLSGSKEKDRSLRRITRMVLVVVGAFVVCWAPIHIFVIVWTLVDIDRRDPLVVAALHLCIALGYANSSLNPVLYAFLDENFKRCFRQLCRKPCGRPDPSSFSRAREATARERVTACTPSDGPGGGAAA
Trypsin, sequence (P00761 whole entry): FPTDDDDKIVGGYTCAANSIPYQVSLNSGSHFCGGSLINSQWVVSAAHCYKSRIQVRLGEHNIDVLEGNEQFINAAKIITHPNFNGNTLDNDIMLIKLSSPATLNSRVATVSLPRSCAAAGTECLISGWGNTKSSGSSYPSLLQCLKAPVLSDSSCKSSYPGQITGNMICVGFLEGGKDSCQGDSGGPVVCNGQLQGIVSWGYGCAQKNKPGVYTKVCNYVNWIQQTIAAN
Arf-GAP with SH3 domain, ANK repeat and PH domain-containing protein 1, sequence (Q9ULH1 whole entry, the tested form may be a part): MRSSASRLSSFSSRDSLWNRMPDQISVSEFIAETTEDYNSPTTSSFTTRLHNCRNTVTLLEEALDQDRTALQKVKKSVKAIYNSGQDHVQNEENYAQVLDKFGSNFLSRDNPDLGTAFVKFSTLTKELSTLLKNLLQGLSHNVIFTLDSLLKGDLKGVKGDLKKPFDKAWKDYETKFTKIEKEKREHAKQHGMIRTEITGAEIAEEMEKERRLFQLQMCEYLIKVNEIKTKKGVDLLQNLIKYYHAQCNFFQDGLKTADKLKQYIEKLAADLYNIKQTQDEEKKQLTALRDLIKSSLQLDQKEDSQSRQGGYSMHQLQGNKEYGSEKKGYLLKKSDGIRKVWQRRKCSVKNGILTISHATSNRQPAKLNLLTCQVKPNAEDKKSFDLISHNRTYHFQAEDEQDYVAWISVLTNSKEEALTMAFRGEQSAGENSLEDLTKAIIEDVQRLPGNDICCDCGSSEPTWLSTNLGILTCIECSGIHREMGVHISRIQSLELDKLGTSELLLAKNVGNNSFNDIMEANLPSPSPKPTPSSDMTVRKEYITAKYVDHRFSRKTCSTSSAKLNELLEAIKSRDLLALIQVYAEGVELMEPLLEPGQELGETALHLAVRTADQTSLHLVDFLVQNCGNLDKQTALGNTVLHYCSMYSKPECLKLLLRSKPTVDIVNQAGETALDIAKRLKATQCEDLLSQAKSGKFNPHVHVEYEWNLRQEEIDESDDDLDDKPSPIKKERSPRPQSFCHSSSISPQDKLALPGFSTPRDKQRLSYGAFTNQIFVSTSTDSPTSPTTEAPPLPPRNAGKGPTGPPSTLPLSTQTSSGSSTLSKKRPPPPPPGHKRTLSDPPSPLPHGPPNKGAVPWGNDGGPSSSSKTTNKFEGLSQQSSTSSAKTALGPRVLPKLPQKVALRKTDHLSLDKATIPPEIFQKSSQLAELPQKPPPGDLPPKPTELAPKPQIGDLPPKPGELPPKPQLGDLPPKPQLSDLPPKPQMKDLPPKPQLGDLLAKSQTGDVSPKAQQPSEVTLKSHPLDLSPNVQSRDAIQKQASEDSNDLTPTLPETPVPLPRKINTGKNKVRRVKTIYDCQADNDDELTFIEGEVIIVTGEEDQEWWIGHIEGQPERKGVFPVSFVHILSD
Intestinal-type alkaline phosphatase, sequence (P09923 whole entry): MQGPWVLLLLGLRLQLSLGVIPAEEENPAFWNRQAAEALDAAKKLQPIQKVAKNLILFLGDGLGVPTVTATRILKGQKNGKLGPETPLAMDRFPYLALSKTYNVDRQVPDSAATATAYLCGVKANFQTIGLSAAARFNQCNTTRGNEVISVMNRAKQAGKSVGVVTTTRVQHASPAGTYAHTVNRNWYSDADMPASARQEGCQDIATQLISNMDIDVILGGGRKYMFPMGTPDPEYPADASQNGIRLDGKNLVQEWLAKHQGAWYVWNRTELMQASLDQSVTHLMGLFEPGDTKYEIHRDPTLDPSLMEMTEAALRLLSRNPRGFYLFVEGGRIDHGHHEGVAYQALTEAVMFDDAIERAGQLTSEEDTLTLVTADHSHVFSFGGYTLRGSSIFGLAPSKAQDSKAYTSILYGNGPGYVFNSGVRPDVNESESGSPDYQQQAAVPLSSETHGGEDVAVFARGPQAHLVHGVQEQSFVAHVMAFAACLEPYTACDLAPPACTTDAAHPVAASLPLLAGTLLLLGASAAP
CAAX prenyl protease 2 (Saccharomyces cerevisiae S288c, UniProt Q03530), sequence (Q03530 whole entry): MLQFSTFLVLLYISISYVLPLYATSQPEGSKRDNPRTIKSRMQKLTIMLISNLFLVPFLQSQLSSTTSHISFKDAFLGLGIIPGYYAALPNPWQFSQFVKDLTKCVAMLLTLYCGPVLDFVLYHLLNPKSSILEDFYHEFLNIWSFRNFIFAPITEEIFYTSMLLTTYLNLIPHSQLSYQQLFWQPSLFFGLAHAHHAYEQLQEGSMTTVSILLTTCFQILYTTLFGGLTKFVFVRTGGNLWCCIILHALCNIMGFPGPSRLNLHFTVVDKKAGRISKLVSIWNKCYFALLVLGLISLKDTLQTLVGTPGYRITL

Cc1csc(NC(=O)c2ccccc2O)n1
AC50 (Trypsin): > 100 µM (inactive) | AC50 (CAAX prenyl protease 2 [1]): 19.3 µM (active)

CS(=O)(=O)Nc1ccccc1C(=O)NC1CC2CCC1C2 (configuration not stated)
AC50 (CAAX prenyl protease 2 [2]): 3.03 µM (active)

Cc1ccc(-n2c(N)c(C(=O)N3CCOCC3)sc2=S)cc1
IC50 [3]: > 100 µM (inactive) | IC50 [4]: > 100 µM (inactive)

O=C(Oc1nsnc1N1CCOCC1)c1ccccc1
IC50 (Coagulation factor XII [5]): 4.38 µM (active)

Cc1nnc(NC(=O)C2CCN(c3cnccn3)CC2)s1
IC50 (Coagulation factor XII [6]): > 50 µM (inactive)

COc1cc(/C=C2/C(=O)ON=C2C)ccc1OCc1ccccc1F
CC50 (Vero [7]): 22.3 µM (active) | EC50 [8]: 39.6 µM (active) | EC50 [9]: 2.06 µM (active) | EC50 [10]: 60.2 µM (active) | EC50 [11]: > 300 µM (inconclusive) | EC50 (H4): > 120 µM (not active) | EC50 [12]: 0.901 µM (active) | EC50 [13]: 10.3 µM (active) | EC50 [14]: 0.127 µM (active)

CC1CCCN(CCCNC(=O)c2cc3c(s2)-c2ccccc2OC3)C1 (configuration not stated)
CC50 (Vero [7]): > 25 µM (active) | CC50 (Vero [15]): 9.23 µM (active) | CC50 (Vero [16]): 6.78 µM (active) | CC50 (Vero [17]): 19.6 µM (active) | IC50 (Vero [18]): 18.9 µM (active) | IC50 (Vero [19]): > 40 µM (active) | IC50 [20]: 9.94 µM (active)

COc1cc2c3nnc(-c4ccc(F)cc4)c-3cn(Cc3ccccc3)c2cc1OC
EC50 [21]: > 99 µM (inactive) | EC50 [22]: 2.91 µM (active) | EC50 [23]: 5.91 µM (active) | EC50 [24]: > 99 µM (inactive) | IC50 [25]: > 20 µM (inactive) | IC50 [26]: 19.2 µM (inactive) | EC50 [27]: 5.84 µM (active) | EC50 [28]: 0.921 µM (active)

Cc1cccc(SCc2noc(C(=O)NCC3CCCO3)c2C(=O)O)c1 (configuration not stated)
IC50 [29]: > 100 µM (inactive)

O=C(Nc1ccccc1)c1cc(F)ccc1S
IC50 (Hexokinase): > 25 µM (inactive)

CCc1ccc(S(=O)(=O)NCc2ccc(C(=O)NCCN(Cc3ccc(OC)cc3)C(C)C)cc2)cc1
IC50 [30]: > 32 µM (inactive) | IC50 [31]: 0.873 µM (active) | IC50 [32]: 0.264 µM (active) | IC50 (Mu-type opioid receptor): > 32 µM (inactive)
